In patent publication US10561638B2, “Methods for treating dependence” (Biotie Therapies, Inc., priority 2007, dated 2020):
Entries after “also recorded” stand apart in the source; their conditions may differ.

Legend:
[1] = target: protein kinase (non-selective); assay: Enzyme selectivity assay; type: biochemical
HMG-CoA reductase = HMG-CoA reductase (Homo sapiens, UniProt P04035); assay: Enzyme selectivity assay; type: biochemical
Procedure: (§1) The activity of nepicastat at twelve selected enzymes and receptors was determined using established assays. Binding data were analyzed by iterative curve-fitting to a four parameter logistic equation. Ki values were calculated from IC50 values using the Cheng-Prusoff equation. Enzyme inhibitory activity was expressed as IC50 (concentration required to produce 50% inhibition of enzyme activity).
(§2) The activity of nepicastat at eleven different enzymes was determined using established assays. The affinity of nepicastat for thirteen selected receptors was determined by radioligand binding assays using standard filtration techniques and membrane preparations. Binding data were analyzed by iterative curve fitting to a four parameter logistic equation. Ki values were calculated using the Cheng-Prusoff equation.

phosphodiesterase III = assay: Enzyme selectivity assay; type: biochemical
Procedure: as §1, §2

neutral endopeptidase = neutral endopeptidase (Homo sapiens, UniProt P08473); assay: Enzyme selectivity assay; type: biochemical
Procedure: as §1, §2

tyrosine hydroxylase = tyrosine hydroxylase (Homo sapiens, UniProt P07101); assay: Enzyme selectivity assay; type: biochemical
Procedure: as §1, §2

nitric oxide synthase = assay: Enzyme selectivity assay; type: biochemical
Procedure: as §1, §2

cyclooxygenase-I = cyclooxygenase-I (Homo sapiens, UniProt P23219); assay: Enzyme selectivity assay; type: biochemical
Procedure: as §1, §2

[2] = system: tissue norepinephrine and dopamine levels; assay: Tissue catecholamines in Sprague-Dawley rats after 10 days b.i.d. dosing; type: in vivo; details: for dopamine/norepinephrine ratio vs vehicle: 2.0 and 6.2 mg/kg b.i.d., day 10, hydrochloride; for norepinephrine levels vs vehicle: 2.0 and 6.2 mg/kg
Procedure: Male Sprague-Dawley rats, weighing 180-200 grams, were fed an iodine deficient diet (Purina, 5891C, Lot 1478, 0.066±0.042 mg iodine/kg sample) ad libitum 14 days prior to treatment. Animals were weighed and randomly assigned to one of the following treatment groups (n=12 per group): nepicastat at 2.0 mg/kg, nepicastat at 6.2 mg/kg, Methimazole at 1 mg/kg, or vehicle at 1 ml/kg. Each group of rats was dosed orally in the evening and the following morning, approximately 12 hours apart, for 10 consecutive days.
At four hours after the second dose, on day 10, rats were anesthetized with halothane, decapitated, and the cortex, striatum, and mesenteric artery were harvested and weighed. Tissue samples were not harvested from the methimazole groups as they only served as positive controls for determination of thyroid function. The mesenteric artery, cortex, and striatum were immediately placed in 0.4 M iced perchloric acid and analyzed for norepinephrine and dopamine levels the same day using HPLC.
To statistically evaluate changes in T3 and T4 levels, a change from baseline was calculated from the day −3 time point. A non-parametric two-way within subject analysis of variance (ANOVA) was conducted. Also a one-way ANOVA was performed to detect if a significant difference from control occurred. Pairwise analyses between controls and each treatment group were carried out using Fisher's LSD strategy to control the experiment-wise error rate. For statistical analysis of catecholamine levels, a one-way ANOVA with factor DOSE was performed. Pairwise analyses between treated and controls at each dose were carried out using Fisher's LSD strategy to control the experiment-wise error rate.

[3] = system: plasma noradrenaline, dopamine and epinephrine; assay: Plasma catecholamines in beagle dogs, 2 mg/kg b.i.d. for 15 days; type: in vivo
Procedure: Male beagle dogs were randomized to be orally dosed with either empty capsules (control) or nepicastat (2 mg·kg^−1, po, b.i.d.) for 15 days. Daily venous blood samples were drawn, six hours after the first dose, for measurement of plasma concentrations of dopamine and noradrenaline. The samples were collected in tubes containing heparin and glutathione, centrifuged at −4° C. and the separated plasma was stored at −70° C. until analysis. […] When compared to the control group, nepicastat (2 mg·kg^−1, b.i.d, po) produced significant decreases in plasma concentrations of noradrenaline and increases in plasma concentrations of dopamine and dopamine/noradrenaline ratio.
The chronic effects of nepicastat (14.5 day treatment) on the plasma DA/NE ratio were investigated in normal dogs. Animals were randomized to receive, orally, either placebo (empty capsule) or nepicastat (2 mg/kg, b.i.d) for 14.5 days. Daily blood samples were drawn, 6 h after the first dose, for the measurement of plasma concentrations of DA and NE. The samples were collected in tubes containing heparin and glutathione, centrifuged at −4° C. and stored at −70° C. until analysis.
Male Beagle dogs (Marshall farms, North Rose, N.Y.) weighing between 9-16 kg were used in the study. The animals were allowed water ad libitum and given food once daily at ˜10.00 AM. Animals were randomly assigned to one of the following treatment groups (n=8/group): placebo (empty capsule), or nepicastat at 2 mg/kg b.i.d (4 mg/kg/day). Each animal received 2 doses daily, morning and afternoon (8-10 hours apart). Daily blood samples (10 ml) were drawn 6 h after the AM dose for measurement of plasma levels of nepicastat and catecholamines. The blood was collected in tubes containing heparin and glutathione and centrifuged at −4° C. within 1 h of collection. The plasma was separated and divided into two samples, one for the measurement of plasma catecholamines and the other for analysis of nepicastat.
Plasma norepinephrine (NE), dopamine (DA) and epinephrine (EPI) were analyzed by HPLC using electrochemical detection. Plasma concentration of nepicastat was determined by HPLC using electrochemical detection.
The BQL (below quantitation limit) in the DA concentration of dog 1 at day 10 was set to 0; 1n (0) was set to missing. The analysis was performed using a mixed model (using PROC MIXED) with the day and treatment categorical variables being fixed and the dog within treatment being a random factor. For the fixed effects, the interaction between the day and the treatment was included, since the difference between the drug and placebo groups varies from day to day. Contrasts were calculated using the CONTRAST statement, which correctly takes into account the error terms for each particular contrast. In particular, the contrasts comparing the treatment group to the […] uses the dog mean square for its error term, while the comparisons used to establish steady state are all within dog comparisons, and require the error mean square.
The time period of steady state was calculated using the Helmert transformation (cf. SAS PROC GLM manual). These transformations compare each treatment mean with the average of the treatment means of the time points following. The steady state period is defined to start at the first time point following the maximum time at which the Helmert contrast is statistically significant. However, since this method can fail to detect a smoothly changing process, as appears might be the case here, the slope of the analyte concentration during the steady state period also was calculated. The slope during the steady state period was calculated for each dog individually, yielding one slope per animal. Univariate statistics on the slopes were then calculated, with Normal theory confidence intervals built on the mean slope, and the hypothesis of slope equaling zero was tested, and its Normal theory p-value was calculated. […]

Sequence of HMG-CoA reductase (P04035 whole entry, species assumed): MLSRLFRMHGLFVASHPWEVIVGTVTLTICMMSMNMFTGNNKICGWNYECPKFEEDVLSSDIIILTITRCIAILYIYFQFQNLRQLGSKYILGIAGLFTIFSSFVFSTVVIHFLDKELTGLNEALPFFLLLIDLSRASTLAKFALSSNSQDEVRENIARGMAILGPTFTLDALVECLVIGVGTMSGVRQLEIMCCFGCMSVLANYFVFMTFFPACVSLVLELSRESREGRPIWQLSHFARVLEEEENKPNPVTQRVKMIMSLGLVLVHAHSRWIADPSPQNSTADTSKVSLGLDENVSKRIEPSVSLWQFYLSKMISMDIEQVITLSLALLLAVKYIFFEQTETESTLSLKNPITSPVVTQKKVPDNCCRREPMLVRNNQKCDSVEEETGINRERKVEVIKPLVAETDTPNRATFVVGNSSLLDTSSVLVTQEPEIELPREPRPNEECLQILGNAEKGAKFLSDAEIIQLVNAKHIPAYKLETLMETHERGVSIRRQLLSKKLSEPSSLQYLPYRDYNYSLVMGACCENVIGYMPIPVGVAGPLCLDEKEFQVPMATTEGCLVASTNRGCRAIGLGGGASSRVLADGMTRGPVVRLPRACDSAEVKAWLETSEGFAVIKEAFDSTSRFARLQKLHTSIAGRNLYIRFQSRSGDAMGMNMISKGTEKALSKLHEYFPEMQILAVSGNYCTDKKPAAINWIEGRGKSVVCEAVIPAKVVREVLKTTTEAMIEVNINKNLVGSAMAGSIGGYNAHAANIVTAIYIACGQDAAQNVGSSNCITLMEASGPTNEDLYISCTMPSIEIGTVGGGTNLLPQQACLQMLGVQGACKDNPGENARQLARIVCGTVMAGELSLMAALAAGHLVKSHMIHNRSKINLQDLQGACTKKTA
Sequence of cyclooxygenase-I (P23219 24-599): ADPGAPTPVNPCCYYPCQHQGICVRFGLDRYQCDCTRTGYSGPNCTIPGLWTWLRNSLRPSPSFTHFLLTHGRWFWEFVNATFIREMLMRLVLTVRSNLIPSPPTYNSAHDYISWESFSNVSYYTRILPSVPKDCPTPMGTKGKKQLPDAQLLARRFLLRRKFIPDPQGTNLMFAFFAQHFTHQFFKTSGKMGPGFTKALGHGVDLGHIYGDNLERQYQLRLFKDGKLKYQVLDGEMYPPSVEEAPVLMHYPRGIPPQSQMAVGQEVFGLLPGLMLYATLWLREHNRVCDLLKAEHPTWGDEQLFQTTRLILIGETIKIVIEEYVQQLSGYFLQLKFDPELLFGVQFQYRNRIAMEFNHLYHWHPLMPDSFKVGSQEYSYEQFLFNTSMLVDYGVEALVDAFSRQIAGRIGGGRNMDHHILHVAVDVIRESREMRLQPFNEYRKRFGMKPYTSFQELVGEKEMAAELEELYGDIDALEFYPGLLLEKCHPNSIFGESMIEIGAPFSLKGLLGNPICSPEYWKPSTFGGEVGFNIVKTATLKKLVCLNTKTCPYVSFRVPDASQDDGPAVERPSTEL
Sequence of tyrosine hydroxylase (P07101 whole entry): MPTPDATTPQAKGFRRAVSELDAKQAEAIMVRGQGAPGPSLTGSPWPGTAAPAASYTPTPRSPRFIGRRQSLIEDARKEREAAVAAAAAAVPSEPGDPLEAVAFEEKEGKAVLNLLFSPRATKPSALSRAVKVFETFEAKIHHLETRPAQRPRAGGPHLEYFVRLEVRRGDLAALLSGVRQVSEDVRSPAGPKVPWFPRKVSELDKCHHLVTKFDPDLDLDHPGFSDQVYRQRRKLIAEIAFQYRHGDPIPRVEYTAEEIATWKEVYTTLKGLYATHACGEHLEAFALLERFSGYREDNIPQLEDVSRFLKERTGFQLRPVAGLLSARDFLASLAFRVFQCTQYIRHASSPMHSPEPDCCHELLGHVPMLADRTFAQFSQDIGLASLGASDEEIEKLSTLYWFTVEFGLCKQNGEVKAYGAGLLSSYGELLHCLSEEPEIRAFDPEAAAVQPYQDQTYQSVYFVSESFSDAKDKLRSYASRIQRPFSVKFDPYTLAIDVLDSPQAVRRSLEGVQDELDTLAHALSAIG
Sequence of neutral endopeptidase (P08473 whole entry, species assumed): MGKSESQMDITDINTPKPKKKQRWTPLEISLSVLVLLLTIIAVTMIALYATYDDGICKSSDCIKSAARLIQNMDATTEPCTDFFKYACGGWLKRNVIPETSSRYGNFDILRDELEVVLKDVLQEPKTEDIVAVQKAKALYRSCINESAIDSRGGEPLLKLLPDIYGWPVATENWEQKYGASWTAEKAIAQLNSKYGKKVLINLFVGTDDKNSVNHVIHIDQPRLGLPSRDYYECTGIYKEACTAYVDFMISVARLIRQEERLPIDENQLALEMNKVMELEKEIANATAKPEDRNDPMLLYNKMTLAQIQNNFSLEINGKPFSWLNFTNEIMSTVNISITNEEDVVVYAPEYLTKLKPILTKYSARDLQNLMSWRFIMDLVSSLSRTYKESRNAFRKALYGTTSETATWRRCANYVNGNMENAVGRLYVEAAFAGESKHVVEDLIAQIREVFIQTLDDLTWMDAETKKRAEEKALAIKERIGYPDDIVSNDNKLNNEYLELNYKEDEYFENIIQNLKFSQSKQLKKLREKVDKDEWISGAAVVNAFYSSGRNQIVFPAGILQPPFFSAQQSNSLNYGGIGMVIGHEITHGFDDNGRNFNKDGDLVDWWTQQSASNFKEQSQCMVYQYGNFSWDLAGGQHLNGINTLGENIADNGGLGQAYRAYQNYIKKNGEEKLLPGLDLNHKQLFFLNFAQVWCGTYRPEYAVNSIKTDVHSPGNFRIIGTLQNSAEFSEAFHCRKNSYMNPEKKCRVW

## Cl.NCc1c[nH]c(=S)n1[C@H]1CCc2c(F)cc(F)cc2C1 [nepicastat, (S)-5-Aminomethyl-1-(5,7-difluoro-1,2,3,4-tetrahydronaphth-2-yl)-2,3-dihydro-2-thioxo-1H-imidazole hydrochloride]
[1]
  IC50: > 10 µM
HMG-CoA reductase
  IC50: > 10 µM
Phosphodiesterase III
  IC50: > 10 µM
Neutral endopeptidase
  IC50: > 10 µM
Tyrosine hydroxylase
  IC50: > 10 µM
Nitric oxide synthase
  IC50: > 10 µM
cyclooxygenase-I
  IC50: > 10 µM
[2]; all three tissues, 2.0 or 6.2 mg/kg
  dopamine levels vs vehicle: not significantly (p>0.05) different
[2]; cortex (and striatum)
  dopamine/norepinephrine ratio vs vehicle: not in the cortex; also recorded: not significantly (p>0.05) different
[2]; cortex
  norepinephrine levels vs vehicle: not significantly (p>0.05) different
[2]; mesenteric artery
  norepinephrine levels vs vehicle: significantly (p<0.05) lower
  dopamine/norepinephrine ratio vs vehicle: significantly raised; also recorded: significantly (p<0.05) higher
[2]; striatum
  norepinephrine levels vs vehicle: marginally (p<0.10) lower
[3]
  day of peak decrease in plasma EPI: 8 days
  day of peak decrease in plasma NE: 6 days
  day of peak increase in plasma DA: 7 days
  day of peak increase in plasma DA/NE ratio: 6 days
  days of dosing until decrease in plasma noradrenaline attained significance: 4 days
  decrease in plasma EPI vs placebo: 1.91 fold
  decrease in plasma NE vs placebo: 2.1 fold
  increase in plasma DA vs placebo: 7.5 fold
  increase in plasma DA/NE ratio vs placebo: 13.6 fold
  time of peak effect on plasma DA/NE ratio: 6 to 7 days
  time to steady-state of effect on plasma DA: ~8 days post-dose
  time to steady-state of effect on plasma EPI: ~6 days post-dose
  time to steady-state of effect on plasma NE: approximately 4 days post-dose
